“Also recorded” adds a separate entry of the source.
What was measured:
Format in all cases: cell-based, human
HMOX1 [1] = assay: HMOX1 protein expression by immunofluorescence (primary screen, high-content imaging); details: NHLF cells
Protocol: NHLF cells were grown to 80% confluency and harvested by washing once with HEPES and then trypsinizing. Equal numbers ([…]) of NHLF cells were plated in 384 well optilux tissue culture (BD) plates. Cells were incubated overnight in FGM-2 medium prior to exposure to compound. Cells were treated with either DMSO or compound for 16 h. Cells were wash 2× with 1×PBS and fix with 4% Paraformaldyhyde for 15 min. The fixed cells were then permeablized with 0.1% Triton X-100 and blocked with 5% BSA in 1× PBS 0.05% Tween-20 for 15 min. HO-1 antibody (abcam) was used for immunostaining at 1:300 dilution in 1% BSA in 1×PBS for 1 hr. Cells were washed 2× with 1×PBS and secondary antibody goat anti-mouse Alexa 488 1:400 dilution (Invitrogen); Hoechst 1:2000 (Invitrogen) in 1% BSA in 1×PBS for 1 hr. The plate was washed 5× with 1×PBS and read at Hoechst Excitation (“Ex.”) 360 Emission (“Em.”) 535; Alexa 488 Ex. 480 Em. 535 using GE InCell 1000. Results were analyzed using GE InCell Analyzer software and represented as the fold change above DMSO treated cells.
A rapid, quantitative screening assay to detect HMOX1 levels in cells based on an immunofluorescent microscopy using an automated high-content imaging system was developed. […] The data are arrayed as in an IR chart with a calculated mean value for the plate and the 3-sigma upper and lower-confidence limits (UCL and LCL). […]

HMOX1 [2] = assay: mRNA expression (Quantigene Plex) in NHLF cells: HMOX1; details: Table 5, 6 h, mRNA normalized to GAPDH, above DMSO treated cells
Protocol: (§1) Secondary growth of NHLF cells were used for all assays. Cell were thawed and then placed into culture in T225 flasks. The cells were grown to 80% confluency and harvested by washing once with HEPES buffered saline solution and then trypsinizing. Equal numbers (7×10^3 cells per well) of NHLF cells were plated in 96 well tissue culture plates (Corning). Cells were incubated overnight in FGM-2 medium prior to exposure to compound. Cells were treated with either DMSO or a compound as described below for 6 h. Preparation of cell lysates was carried out according to instructions using the Quantigene Reagent system 2.0 protocol (Panomics). mRNA induction was detected from cell lysate using the Quantigene Plex 2.0 Assay Kit (Panomics) on the Luminex platform (BIO-RAD). Expression of GAPDH mRNA was used as the internal control for the Quantigen Plex 2.0 Assay. The data in Tables 5 and 6 represents the fold change of target mRNA expression, normalized to control values, above DMSO treated cells.

NQO1 = assay: mRNA expression (Quantigene Plex) in NHLF cells: NQO1; details: Table 5, 6 h, mRNA normalized to GAPDH, above DMSO treated cells
Protocol: as §1

HSPA6 = assay: mRNA expression (Quantigene Plex) in NHLF cells: HSPA6; details: Table 5, 6 h, mRNA normalized to GAPDH, above DMSO treated cells
Protocol: as §1

ATF4 = assay: mRNA expression (Quantigene Plex) in NHLF cells: ATF4; details: Table 5, 6 h, mRNA normalized to GAPDH, above DMSO treated cells
Protocol: as §1

GADD45A = assay: mRNA expression (Quantigene Plex) in NHLF cells: GADD45A; details: Table 5, 6 h, mRNA normalized to GAPDH, above DMSO treated cells
Protocol: as §1

NHLF cells = assay: ROS measurements (H2DCF-DA imaging); details: 1 hr, cell-by-cell imaging, FIG. 3A/3B
Procedure, shortened: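 Secondary-passage NHLF cells (2,000/well, overnight) loaded 30 min with H2DCF-DA, 10 μM ferric ammonium citrate and Hoechst, washed, then treated with compound in FBM-2 medium 1 h at 37 °C, 5% CO2. ROS quantified by automated fluorescence imaging of DCF signal.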

HMOX1 [3] = assay: Effect of NAC on compound induction of HMOX gene expression; details: NHLF cells pretreated with 5 mM NAC 1 hr, compound 6 h, FIG. 4
Protocol: NHLF cells were grown to 80% confluency and harvested by washing once with HEPES and then trypsinizing. Equal numbers (7×10^4 cells per well) of NHLF cells were plated in 96 well tissue culture (Corning) plates. Cells were incubated overnight in FGM-2 medium prior to exposure to compound. Cells were pretreated with 5 mM N-acetyl cysteine for 1 hr. Cells were treated with either DMSO or compound for 6 h. Preparation of cell lysates was carried out according to Quantigene Reagent system 2.0 protocol (Panomics). Heme oxygenase mRNA induction was detected from cell lysate using the Quantigene Plex 2.0 Assay Kit (Panomics) on the Luminex platform (BIO-RAD). Expression of GAPDH mRNA was used as the internal control for the Quantigen Plex 2.0 Assay. Heme oxygenase data represents the fold change, normalized to control values, above DMSO treated cells.
A further test of the hypothesis that Compound 13 induces HMOX1 with minimal alteration of cellular redox levels or chemical reactivity was carried out by treating cells with N-acetyl cysteine (NAC). This compound acts to restore cellular glutathione levels and thus prevent oxidative stress. The degree to which NAC can suppress HMOX1 induction is an indicator of the amount of chemical reactivity or ROS stress that a compound is imposing on the cell and thus activating phase II gene transcription. […] Coupled with the data shown in FIG. 3, it is concluded that Compound 13 induces HMOX1 with minimal elevation of ROS or NAC-sensitive chemical reactivity.

O=C(Nc1ccc2cn[nH]c2c1)c1ccc2[nH]c(Nc3nc4ccccc4s3)nc2c1 [Compound 13, 2-(Benzothiazol-2-ylamino)-1H-benzoimidazole-5-carboxylic acid (1H-indazol-6-yl)-amide]
EC50 (HMOX1 [1]; Homo sapiens, immunofluorescence, dose response, FIG. 2, read-out: effective potency (HMOX1 induction)): < 1000 nM
averaged signal intensity for HMOX1 staining versus upper confidence limit (UCL) (HMOX1 [1]; primary screen, FIG. 1): significantly greater than the upper confidence limit
HMOX1 (fold induction) (HMOX1 [2]): 25 fold induction
NQO1 (fold induction) (NQO1): shown to induce
NQO1 (fold induction) (NQO1; listed as #13): 2.2 fold induction
HSPA6 (fold induction) (HSPA6): did not induce
HSPA6 (fold induction) (HSPA6; listed as #13): 0.96 fold induction
ATF4 (fold induction) (ATF4): 1.2 fold induction
GADD45A (fold induction) (GADD45A): 0.89 fold induction
ROS production (in words) (NHLF cells): modestly elevated ROS production; also recorded: little increase in ROS production
effect of N-acetyl cysteine (NAC) on HMOX1 induction (HMOX1 [3]): induces the greatest amount of HMOX1 with the least impact by NAC; also recorded: still induces HMOX1 expression in the presence of NAC

From US9707239B2, “Compounds that modulate oxidative stress” (vTv Therapeutics LLC, priority 2011, dated 2017)
